In US10189816B2, “Substituted pyridines as inhibitors of human immunodeficiency virus replication” (priority 2015, dated 2019):
Read-outs that look alike come from different tables or passages of the source.

System: NL-RLuc virus
Test: Inhibition of HIV replication (NL-RLuc reporter virus in MT-2 cells, luciferase readout)
Assay type: cell-based
How it was run: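 MT-2 cells infected with NL4-3-derived NL-RLuc reporter virus (Renilla luciferase replacing part of nef) with serial compound dilutions, RPMI 1640 + 10% FBS; 5 days. Growth by luciferase; EC50 from median effect equation, ≥2 experiments.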

[1] = Human immunodeficiency virus 1, MT2, 120 h, read-out: Activity
[2] = Human immunodeficiency virus 1, MT2, 120 h, read-out: EC50 μM

Structure (SMILES) | EC50 [1] | EC50 [2] | EC50 (NL-RLuc virus in MT-2 cells, 5 days of incubation, luciferase, at least 2 experiments, read-out: Activity)
Cc1nc(C)c([C@H](OC(C)(C)C)C(=O)O)c(N2CCC(C)(C)CC2)c1-c1ccc2c(c1)CCN(Cc1cc(F)c(F)c(F)c1)C2 [Compound 34, (S)-2-(tert-butoxy)-2-(4-(4,4-dimethylpiperidin-1-yl)-2,6-dimethyl-5-(2-(3,4,5-trifluorobenzyl)-1,2,3,4-tetrahydroisoquinolin-6-yl)pyridin-3-yl)acetic acid] | < 0.1 µM | – | –
Cc1nc(C)c([C@H](OC(C)(C)C)C(=O)O)c(N2CCC(C)(C)CC2)c1-c1ccc2c(c1)CCN(Cc1ccc(-c3ccccc3)cc1)C2 [Compound 14, (S)-2-(5-(2-([1,1′-biphenyl]-4-ylmethyl)-1,2,3,4-tetrahydroisoquinolin-6-yl)-4-(4,4-dimethylpiperidin-1-yl)-2,6-dimethylpyridin-3-yl)-2-(tert-butoxy)acetic acid] | < 0.1 µM | 0.034 µM | –
CCCCCCCCCOc1ccc(CN2CCc3cc(-c4c(C)nc(C)c([C@H](OC(C)(C)C)C(=O)O)c4N4CCC(C)(C)CC4)ccc3C2)cc1 [Compound 163, (S)-2-(tert-butoxy)-2-(4-(4,4-dimethylpiperidin-1-yl)-2,6-dimethyl-5-(2-(4-(nonyloxy)benzyl)-1,2,3,4-tetrahydroisoquinolin-6-yl)pyridin-3-yl)acetic acid] | < 0.1 µM | 0.076 µM | –
Cc1ccc(C(F)(F)F)cc1CN1CCc2cc(-c3c(C)nc(C)c([C@H](OC(C)(C)C)C(=O)O)c3N3CCC(C)(C)CC3)ccc2C1 [Compound 52, (S)-2-(tert-butoxy)-2-(4-(4,4-dimethylpiperidin-1-yl)-2,6-dimethyl-5-(2-(2-methyl-5-(trifluoromethyl)benzyl)-1,2,3,4-tetrahydroisoquinolin-6-yl)pyridin-3-yl)acetic acid] | – | – | < 0.1 µM
COc1ccc(CN2CCc3cc(-c4c(C)nc(C)c([C@H](OC(C)(C)C)C(=O)O)c4N4CCC(C)(C)CC4)ccc3C2)cc1Cl [Compound 137, (S)-2-(tert-butoxy)-2-(5-(2-(3-chloro-4-methoxybenzyl)-1,2,3,4-tetrahydroisoquinolin-6-yl)-4-(4,4-dimethylpiperidin-1-yl)-2,6-dimethylpyridin-3-yl)acetic acid] | < 0.1 µM | – | –
Cc1nc(C)c([C@H](OC(C)(C)C)C(=O)O)c(N2CCC(C)(C)CC2)c1-c1ccc2c(c1)CCN(Cc1cc(F)cc(C(F)(F)F)c1)C2 [Compound 68, (S)-2-(tert-butoxy)-2-(4-(4,4-dimethylpiperidin-1-yl)-5-(2-(3-fluoro-5-(trifluoromethyl)benzyl)-1,2,3,4-tetrahydroisoquinolin-6-yl)-2,6-dimethylpyridin-3-yl)acetic acid] | < 0.1 µM | – | –
Cc1cccc(CN2CCc3cc(-c4c(C)nc(C)c([C@H](OC(C)(C)C)C(=O)O)c4N4CCC(C)(C)CC4)ccc3C2)c1C [Compound 80, (S)-2-(tert-butoxy)-2-(5-(2-(2,3-dimethylbenzyl)-1,2,3,4-tetrahydroisoquinolin-6-yl)-4-(4,4-dimethylpiperidin-1-yl)-2,6-dimethylpyridin-3-yl)acetic acid] | < 0.1 µM | 0.003 µM | –
Cc1ccccc1CN1CCc2cc(-c3cnc(C)c([C@H](OC(C)(C)C)C(=O)O)c3N3CCC(C)(C)CC3)ccc2C1 [Compound 165, (S)-2-(tert-Butoxy)-2-(4-(4,4-dimethylpiperidin-1-yl)-2-methyl-5-(2-(2-methylbenzyl)-1,2,3,4-tetrahydroisoquinolin-6-yl)pyridin-3-yl)acetic acid] | < 0.1 µM | – | –
Cc1nc(C)c([C@H](OC(C)(C)C)C(=O)O)c(N2CCC(C)(C)CC2)c1-c1ccc2c(c1)CCN(Cc1ccccc1C#N)C2 [Compound 62, (S)-2-(tert-butoxy)-2-(5-(2-(2-cyanobenzyl)-1,2,3,4-tetrahydroisoquinolin-6-yl)-4-(4,4-dimethylpiperidin-1-yl)-2,6-dimethylpyridin-3-yl)acetic acid] | < 0.1 µM | – | –
Cc1nc(C)c([C@H](OC(C)(C)C)C(=O)O)c(N2CCC(C)(C)CC2)c1-c1ccc2c(c1)CCN(Cc1ccc(F)c(Cl)c1)C2 [Compound 24, (S)-2-(tert-butoxy)-2-(5-(2-(3-chloro-4-fluorobenzyl)-1,2,3,4-tetrahydroisoquinolin-6-yl)-4-(4,4-dimethylpiperidin-1-yl)-2,6-dimethylpyridin-3-yl)acetic acid] | < 0.1 µM | – | –
Cc1cccc(Cl)c1CN1CCc2cc(-c3c(C)nc(C)c([C@H](OC(C)(C)C)C(=O)O)c3N3CCCC(C)(C)C3)ccc2C1 [Compound 166, (S)-2-(tert-butoxy)-2-(5-(2-(2-chloro-6-methylbenzyl)-1,2,3,4-tetrahydroisoquinolin-6-yl)-4-(3,3-dimethylpiperidin-1-yl)-2,6-dimethylpyridin-3-yl)acetic acid] | < 0.1 µM | 0.023 µM | –
Cc1nc(C)c([C@H](OC(C)(C)C)C(=O)O)c(N2CCC(C)(C)CC2)c1-c1ccc2c(c1)CCN(Cc1cccc3c1OCCO3)C2 [Compound 158, (S)-2-(tert-butoxy)-2-(5-(2-((2,3-dihydrobenzo[b][1,4]dioxin-5-yl)methyl)-1,2,3,4-tetrahydroisoquinolin-6-yl)-4-(4,4-dimethylpiperidin-1-yl)-2,6-dimethylpyridin-3-yl)acetic acid] | < 0.1 µM | – | –
COc1ccc(CN2CCc3cc(-c4c(C)nc(C)c([C@H](OC(C)(C)C)C(=O)O)c4N4CCC(C)(C)CC4)ccc3C2)cc1F [Compound 97, (S)-2-(tert-butoxy)-2-(4-(4,4-dimethylpiperidin-1-yl)-5-(2-(3-fluoro-4-methoxybenzyl)-1,2,3,4-tetrahydroisoquinolin-6-yl)-2,6-dimethylpyridin-3-yl)acetic acid] | < 0.1 µM | – | –
COc1cc(F)cc(CN2CCc3cc(-c4c(C)nc(C)c([C@H](OC(C)(C)C)C(=O)O)c4N4CCC(C)(C)CC4)ccc3C2)c1 [Compound 122, (S)-2-(tert-butoxy)-2-(4-(4,4-dimethylpiperidin-1-yl)-5-(2-(3-fluoro-5-methoxybenzyl)-1,2,3,4-tetrahydroisoquinolin-6-yl)-2,6-dimethylpyridin-3-yl)acetic acid] | < 0.1 µM | – | –
Cc1nc(C)c([C@H](OC(C)(C)C)C(=O)O)c(N2CCC(C)(C)CC2)c1-c1ccc2c(c1)CCN(Cc1cccc(OC(F)(F)C(F)F)c1)C2 [Compound 121, (S)-2-(tert-butoxy)-2-(4-(4,4-dimethylpiperidin-1-yl)-2,6-dimethyl-5-(2-(3-(1,1,2,2-tetrafluoroethoxy)benzyl)-1,2,3,4-tetrahydroisoquinolin-6-yl)pyridin-3-yl)acetic acid] | < 0.1 µM | – | –
COc1cc(F)c(CN2CCc3cc(-c4c(C)nc(C)c([C@H](OC(C)(C)C)C(=O)O)c4N4CCC(C)(C)CC4)ccc3C2)c(F)c1 [Compound 106, (S)-2-(tert-butoxy)-2-(5-(2-(2,6-difluoro-4-methoxybenzyl)-1,2,3,4-tetrahydroisoquinolin-6-yl)-4-(4,4-dimethylpiperidin-1-yl)-2,6-dimethylpyridin-3-yl)acetic acid] | < 0.1 µM | – | –
CCOc1cc(CN2CCc3cc(-c4c(C)nc(C)c([C@H](OC(C)(C)C)C(=O)O)c4N4CCC(C)(C)CC4)ccc3C2)c(F)cc1F [Compound 126, (S)-2-(tert-butoxy)-2-(4-(4,4-dimethylpiperidin-1-yl)-5-(2-(5-ethoxy-2,4-difluorobenzyl)-1,2,3,4-tetrahydroisoquinolin-6-yl)-2,6-dimethylpyridin-3-yl)acetic acid] | < 0.1 µM | – | –
Cc1nc(C)c([C@H](OC(C)(C)C)C(=O)O)c(N2CCC(C)(C)CC2)c1-c1ccc2c(c1)CCN(Cc1ccc(Cl)c(Cl)c1)C2 [Compound 127, (S)-2-(tert-butoxy)-2-(5-(2-(3,4-dichlorobenzyl)-1,2,3,4-tetrahydroisoquinolin-6-yl)-4-(4,4-dimethylpiperidin-1-yl)-2,6-dimethylpyridin-3-yl)acetic acid] | < 0.1 µM | – | –
Cc1nc(C)c([C@H](OC(C)(C)C)C(=O)O)c(N2CCC(C)(C)CC2)c1-c1ccc2c(c1)CCN(Cc1ccc(OC(F)F)cc1F)C2 [Compound 105, (S)-2-(tert-butoxy)-2-(5-(2-(4-(difluoromethoxy)-2-fluorobenzyl)-1,2,3,4-tetrahydroisoquinolin-6-yl)-4-(4,4-dimethylpiperidin-1-yl)-2,6-dimethylpyridin-3-yl)acetic acid] | < 0.1 µM | – | –
COc1ccc(F)cc1CN1CCc2cc(-c3c(C)nc(C)c([C@H](OC(C)(C)C)C(=O)O)c3N3CCC(C)(C)CC3)ccc2C1 [Compound 124, (S)-2-(tert-butoxy)-2-(4-(4,4-dimethylpiperidin-1-yl)-5-(2-(5-fluoro-2-methoxybenzyl)-1,2,3,4-tetrahydroisoquinolin-6-yl)-2,6-dimethylpyridin-3-yl)acetic acid] | < 0.1 µM | – | –
COc1ccc(C)cc1CN1CCc2cc(-c3c(C)nc(C)c([C@H](OC(C)(C)C)C(=O)O)c3N3CCC(C)(C)CC3)ccc2C1 [Compound 119, (S)-2-(tert-butoxy)-2-(4-(4,4-dimethylpiperidin-1-yl)-5-(2-(2-methoxy-5-methylbenzyl)-1,2,3,4-tetrahydroisoquinolin-6-yl)-2,6-dimethylpyridin-3-yl)acetic acid] | < 0.1 µM | – | –
Cc1nc(C)c([C@H](OC(C)(C)C)C(=O)O)c(N2CCC(C)(C)CC2)c1-c1ccc2c(c1)CCN(Cc1ccccc1F)C2 [Compound 9, (S)-2-(tert-butoxy)-2-(4-(4,4-dimethylpiperidin-1-yl)-5-(2-(2-fluorobenzyl)-1,2,3,4-tetrahydroisoquinolin-6-yl)-2,6-dimethylpyridin-3-yl)acetic acid] | < 0.1 µM | – | –
Cc1nc(C)c([C@H](OC(C)(C)C)C(=O)O)c(N2CCC(C)(C)CC2)c1-c1ccc2c(c1)CCN(Cc1ccc(OC(C)C)cc1)C2 [Compound 150, (S)-2-(tert-butoxy)-2-(4-(4,4-dimethylpiperidin-1-yl)-5-(2-(4-isopropoxybenzyl)-1,2,3,4-tetrahydroisoquinolin-6-yl)-2,6-dimethylpyridin-3-yl)acetic acid] | < 0.1 µM | 0.021 µM | –
